Reference: US8012944B2, “Method for treating cancer using IAP antisense oligomer and chemotherapeutic agent” (Pharmascience Inc., priority 2003, dated 2011)
Oligonucleotides are written 5' to 3', each unit as a sugar letter and its base; * is a phosphorothioate linkage, no mark a phosphodiester; rarer units and linkages stand in square brackets, end groups in braces. Plain capitals give the bases only. d = 2'-deoxy (DNA)

What was measured:
XIAP protein [1] = experiment: XIAP protein knock-down in H460 cells (western blot, densitometry); assay type: cell-based, human
Experimental: FIGS. 3 and 4 are graphs showing the effects of 4×4 mixed backbone (MBO) FG8 or E12 oligonucleotides in amounts of 31 nM (FIG. 3) or 63 nM (FIG. 4). H460 lung carcinoma cells were transfected for 18 hours on one, two, or three consecutive days using 125 nM MBOs and Lipofectamine 2000. Samples for western analysis were harvested at the indicated time. Scanning densitometry was performed, and XIAP protein levels were normalized to GAPDH and compared to a mock control set to 100%. The indicated percentages express % XIAP protein knockdown versus specific scrambled controls.
(§1) One day prior to transfection, H460 cells were plated in 6- or 96-well tissue culture plates. Phosphorothioate antisense oligonucleotides were delivered into cells with Lipofectamine 2000 (Life Technologies) in the form of liposome-oligonucleotide complexes. Following a 4.5 or 6 h transfection, the transfection medium was replaced with RPMI medium containing 10% FBS, and the cells incubated for another 24 or 48 h.
(§2) The cells or tumor tissue samples were lysed with ice-cold lysis buffer (50 mM Tris, 150 mM NaCl, 2.5 mM EDTA, 0.1% SDS, 0.5% sodium deoxycholate, 1% NP-40, 0.02% sodium azide) containing protease inhibitors (Complete-Mini protease inhibitor tablets; Boehringer Mannheim GmBH, Mannheim, Germany). After incubation for 30 min on ice, samples were centrifuged at 10,000 rpm for 15 min, and stored at −20° C. Protein content in the lysed extracts was determined using a detergent-compatible Bio-Rad assay (Bio-Rad Labs, Hercules, Calif.). Equal amounts of protein (40 μg/lane) were separated on 12% SDS-polyacrylamide gels or 4-15% gradient SDS-polyacrylamide pre-made gels (Bio-Rad) and transferred to nitrocellulose membranes. Primary antibodies against XIAP, Bcl-2 (DAKO, Glostrup, Denmark), Bax (Sigma, St. Louis, Mo.), β-actin (Sigma), caspase-3 (BD PharMingen, San Diego, Calif.), and PARP (BD PharMingen) were used. The secondary antibody was the appropriate horseradish-conjugated anti-mouse or anti-rabbit IgG (Promega, Madison, Wis.). Proteins were detected by enhanced chemiluminescence (ECL; Amersham Pharmacia Biotech, Buckinghamshire, England) and visualized after exposure to Kodak autoradiography film. Scanning densitometry (Molecular Dynamics, Sunnyvale, Calif.) was performed to quantify band intensities by volume/area integration. The amount of XIAP, caspase-3, Bcl-2 and Bax in cells was normalized to their respective lane β-actin levels, upon stripping and reprobing.

pro-caspase-3, PARP = experiment: Pro-caspase-3 and PARP protein in H460 cells (western blot); assay type: cell-based, human; settings: 1.2 μM
Experimental: as §1, §2

[2] = tested on: subcutaneous H460 human non-small-cell lung tumor xenografts; experiment: Systemic (i.p.) oligonucleotides with or without vinorelbine in H460 xenografts; assay type: in vivo, SCID-RAG2 mice; settings: for antitumor efficacy on H460 xenografts (in words): systemic, oligonucleotide 15 mg/kg i.p., VNB 5 or 10 mg/kg i.v.
Experimental: (§3) Initial systemic PS-oligonucleotide studies were designed without any chemotherapeutic agents. SCID-RAG2 mice were inoculated with H460 human lung carcinoma cells (s.c. shoulder injection of 10^6 cells) and treatments with G4 and F3 AS PS-oligonucleotides, as well as a scrambled control, were initiated three days after tumor inoculation. Nucleobase oligomer injections were administered i.p. at 12.5 mg/kg three times a week for three weeks. At the end of the treatment period, mean tumor sizes in the groups treated with either G4 or F3 AS oligonucleotides were ˜50% smaller than in the group treated with a scrambled control oligonucleotides (FIG. 15). The same treatment protocol was tested on female SCID-RAG2 mice inoculated orthotopically with MDA-MB-435/LCC6 human breast carcinoma cells. Two weeks after the last treatment (day 35) tumor volumes of mice treated with F3, C5 or G4 AS oligonucleotides were 70%, 60%, and 45%, respectively, smaller than vehicle controls (FIG. 16).
We conducted additional examination of the antitumor effects of G4 AS oligonucleotides in SCID-RAG2 mice bearing xenografts of H460 human non-small-cell lung tumors implanted subcutaneously. Saline-treated control tumors grew reproducibly to a size of 0.75 cm^3 within approximately 24 days (FIG. 17). Oligonucleotide treatments were initiated three days after tumor cell inoculation. G4 AS oligonucleotides (5 to 15 mg/kg) were administered using a treatment schedule of i.p. injections given once a day on days 3-7, 10-14, and 17-21. The treatment with 5 or 15 mg/kg G4 AS oligonucleotides greatly delayed tumor growth: on day 24 mean tumor sizes were 0.75, 0.45 and 0.29 cm^3 in control, 5 and 15 mg/kg treated groups, respectively (FIG. 18A). There was a dose-dependent inhibition of tumor growth. […] A dose of 15 mg/kg was selected for the future combination treatment regimens with anticancer drugs.
The human non-small cell lung cancer cell line (large cell type) NCI-H460 (H460) was obtained from ATCC and maintained in RPMI 1640 supplemented with 10% FCS at 37° C. in a humidified atmosphere containing 5% CO2. Cells were used in exponential growth phase, up to a maximum of 25 in vitro passages. Male SCID-RAG2 mice (7-9 weeks old, 23-26 g) were obtained from British Columbia Cancer Agency Joint Animal Facility breeding colony and kept in aseptic environments. A tumor model of NCI-H460 cells in SCID-RAG2 mice was established by subcutaneous implantation of 1×10^6 NCI-H460 cells on the back of mice.
(§4) Efficacy experiments were conducted in male RAG2 immunodeficient mice bearing NCI-H460 tumours or female RAG2 mice bearing LCC6 tumors. Treatments were commenced on day 3 after tumor inoculation. Saline (controls), G4 AS oligonucleotides (5 or 15 mg/kg), or G4 SC oligonucleotides (5 or 15 mg/kg) were administered i.p. daily for five doses a week over a three week regimen. Vinorelbine (VNB, 5 or 10 mg/kg) was administered i.v. via the tail vein, either alone or in combination with oligonucleotides, at day 3, 7, 11 and 17 after tumor inoculation. When oligonucleotides were administered in combination with VNB, the drug treatment was performed four hours after ODN treatment.
(§5) Mice were observed daily. Body weight measurements and signs of stress (e.g., lethargy, ruffled coat, ataxia) were used to detect possible toxicities. Animals with ulcerated tumor, or tumor volumes of 1 cm^3 or greater were killed. Digital caliper measurements of tumors were converted into mean tumor size (cm^3) using the formula: ½[length (cm)]×[width (cm)]^2. An average tumor size per mouse was used to calculate the group mean tumor size±SE (n=6 mice) from at least two independent experiments per group.

[3] = tested on: MDA-MB-435/LCC6 human breast carcinoma xenografts; experiment: Systemic (i.p.) PS-oligonucleotides in LCC6 breast carcinoma xenografts; assay type: in vivo, female SCID-RAG2 mice; settings: 12.5 mg/kg i.p.; day 35, two weeks after the last treatment
Experimental: as §3, §4

Bcl-2 and Bax = experiment: Bcl-2:Bax ratio in H460 cells (western blot); assay type: cell-based, human; settings: 1.2 μM
Experimental: FIGS. 11A and 11B are schematic illustrations showing XIAP oligonucleotide-mediated effects on caspase activation. The effect of XIAP oligonucleotides F3, G4, or C5, or their respective RP and SC ODN controls at 1.2 μM on the expression of pro-caspase-3, PARP (both full length (116 kDa) and processed (85 kDa)) (FIG. 10A) and Bcl-2 and Bax protein levels (FIG. 10B) in transfected H460 cells compared to control is shown. Proteins expression was analyzed by western blotting. Bcl-2 and Bax protein levels were normalized to cellular actin levels and quantified by densitometry. […]
The cells or tumor tissue samples were lysed with ice-cold lysis buffer (50 mM Tris, 150 mM NaCl, 2.5 mM EDTA, 0.1% SDS, 0.5% sodium deoxycholate, 1% NP-40, 0.02% sodium azide) containing protease inhibitors (Complete-Mini protease inhibitor tablets; Boehringer Mannheim GmBH, Mannheim, Germany). […] Protein content in the lysed extracts was determined using a detergent-compatible Bio-Rad assay (Bio-Rad Labs, Hercules, Calif.). […] Proteins were detected by enhanced chemiluminescence (ECL; Amersham Pharmacia Biotech, Buckinghamshire, England) and visualized after exposure to Kodak autoradiography film. Scanning densitometry (Molecular Dynamics, Sunnyvale, Calif.) was performed to quantify band intensities by volume/area integration. […]

[4] = mouse, in vivo
From the text: as §5

XIAP protein [5] = experiment: XIAP protein knock-down in T24 cells (XIAP ELISA, relative to total protein); assay type: cell-based, human
Summary of the method: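 T24 bladder carcinoma cells transfected with antisense oligonucleotides using Lipofectamine plus in serum-free, antibiotic-free McCoy's medium for three hours, then serum added. XIAP protein measured by colorimetric sandwich ELISA on day 4, normalized to total cellular protein and compared with mock transfection.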

XIAP mRNA = XIAP mRNA knock-down in H460 cells (real-time RT-PCR / TaqMan); assay type: cell-based, human
Summary of the method: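 NCI-H460 cells transfected with phosphorothioate antisense oligonucleotides via Lipofectamine 2000; RNA isolated after 6 h treatment. XIAP mRNA quantified by one-step TaqMan real-time RT-PCR, comparative Ct (threshold 30× baseline SD), normalized to GAPDH and expressed relative to untreated control cells.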

T24 cells = experiment: Visual inspection of T24 cell morphology after transfection; assay type: cell-based, human; settings: twenty hours after transfection
From the text: The occurrence of cytoxicity induced by oligonucleotide E4 was examined by visually inspecting T24 cells that were left untreated, mock transfected, or transfected with E4, E4 scrambled, E4 reverse polarity, or E4 mismatched oligonucleotides. Twenty hours after transfection, the cells were examined for morphology (FIG. 5D).

XIAP RNA = XIAP RNA knock-down in T24 cells (TaqMan quantitative PCR); assay type: cell-based, human
Summary of the method: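 T24 bladder carcinoma cells (1.5×10^4/well) cultured 24 h in antibiotic-free McCoy's medium, then transfected with antisense oligonucleotides using Lipofectamine-based conditions optimized on survivin knock-down. XIAP mRNA measured by TaqMan RT-qPCR, quantified relative to GAPDH by the comparative Ct method.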

H460 cells [6] = experiment: Nuclear morphology (DAPI staining); assay type: cell-based, human; settings: 1.2 μM
Experimental: Cells were treated with liposome-oligonucleotde complexes for 4.5 h, and incubated for another 48 h at 37° C. in the medium without transfection reagent or oligonucleotides. Cells were harvested and stained with 0.10 μg/ml DAP1 (4′, 6-diamidino-2-2-phenylindole) for 30 min at room temperature. Cells were placed on a glass slide, cytospun, and viewed with a Leica microscope and 40× objective lens under UV fluorescent illumination. Digital images were captured using Imagedatabase V. 4.01 Software (Leica, Germany).

H460 cells [7] = experiment: Apoptotic flow cytometric assay (PI staining, hypo-diploid DNA content); assay type: cell-based, human; settings: 1.2 μM, untreated control 16.6%
Experimental: Cells were treated with liposome-oligonucleotide complexes for 4.5 h, and incubated for another 48 h in the medium without transfection reagent at 37° C. Following incubation, cells were harvested, washed twice with sample buffer (0.5% glucose in PBS without Ca^++ and Mg^++), and fixed in cold 70% ethanol at 4° C. for at least 18 hrs. Samples were centrifuged at 3000 rpm for 10 min, then resuspended in sample buffer containing 50 μg/ml propidium iodide (PI) and 400 U/ml RNase A. Samples were incubated for 30 min at room temperature and 30 min on ice, followed by flow cytometry analysis. EXPO Software (Applied Cytometry Systems, Sacramento, Calif.) was used to generate histograms, which were used to determine the cell cycle phase distribution after debris exclusion. The Sub G1/G0 cell fraction was considered as representative for apoptotic cells.

H460 cells [8] = experiment: H460 cell growth, viability or death (MTT assay); assay type: cell-based, human; settings: 1.2 μM
Experimental: Growth inhibition of […] cells was determined by the colorimetric MTT cell viability/proliferation assay. In brief, cells were treated with liposome-oligonucleotide complexes for 4.5 h, then incubated for another 48 h at 37° C. in medium without transfection reagent or oligonucleotides in the presence or absence of anticancer drugs. MTT (25 μg/well) was added to each well, and the plates incubated for 3 h at 37° C. Following the incubation step, the colored formazan product was dissolved by the addition of 200 μl DMSO. Plates were read using the microtiter plate reader (Dynex Technologies Inc., Chantilly, Va.) at a wavelength of 570 nm. The percentage of surviving cells in wells treated with oligonucleotides was normalized to untreated controls. All assays were performed in triplicate.

ATCTTCTCTTGAAAATAGG (DNA, all phosphorothioate, methylation of C not given here) [F3 AS]
reduction of XIAP protein level (XIAP protein [1]; 1.2 μM, 24 h after the end of transfection): 50% | reduction of pro-caspase-3 protein levels compared to untreated control (pro-caspase-3, PARP): 40% | mean tumor size smaller than scrambled control group ([2]; PS-oligonucleotides 12.5 mg/kg i.p. three times a week for three weeks, end of treatment): ~50% | tumor volumes smaller than vehicle controls [3]: 70% | ratio of Bcl-2:Bax (Bcl-2 and Bax): unchanged

CCC1=C[C@@H]2CN(C1)Cc1c([nH]c3ccccc13)[C@@](C(=O)OC)(c1cc3c(cc1OC)N(C)[C@H]1[C@@](O)(C(=O)OC)[C@H](OC(C)=O)[C@]4(CC)C=CCN5CC[C@]31[C@@H]54)C2 [VNB, vinorelbine, reference compound]
signs of toxicity in mice [4]: without showing significant signs of undesirable toxicity | average tumor size ([2]; day 29, VNB 5 mg/kg, oligonucleotides 15 mg/kg): 0.59±0.04 cm^3 | antitumor efficacy on H460 xenografts (in words) [2]: significant tumor growth suppression

CGCACGGTATCTCCTTCAC (antisense; chemistry not fully specified) [Code E4]
XIAP down-regulation T24 protein (XIAP protein [5]): 34% | XIAP protein levels relative to total protein, compared to mock transfection (in words) (XIAP protein [5]; first screen of the library): some decrease | XIAP down-regulation H460 RNA (XIAP mRNA): 51% | signs of toxicity (cell morphology) (T24 cells): showed signs of toxicity | XIAP down-regulation T24 RNA (XIAP RNA): 47%

GGCTCTTTGCCCACTGAAT (dG*dG*dC*dT*dC*dT*dT*dT*dG*dC*dC*dC*dA*dC*dT*dG*dA*dA*dT) [G4 SC, reference compound]
effect on XIAP protein levels (in words) (XIAP protein [1]): little XIAP loss | effect on caspase-3 or PARP protein expression (pro-caspase-3, PARP): did not have any effect | nuclear morphological changes characteristic of apoptosis (H460 cells [6]): Few cells showed these morphological changes | tumors reduced in size, % of control tumors ([2]; 15 mg/kg, day 21 or 24): 24% | antitumor efficacy on H460 xenografts (in words) [2]: no therapeutic activity | hypo-diploid DNA content of cells (H460 cells [7]): 22.1% | cell death (H460 cells [8]; H460 cells): less than 10% | reduction of H460 cell growth relative to untreated control (H460 cells [8]; MTT, 48 hours after transfection): less than 10%
